# Assay results from patent US10786468B2, “Deacetylnemorone abietane diterpenoids for use in cancer treatment” (University of South Carolina, priority 2017, dated 2020).
# Tests used:
# [1] = system: SK-OV-3 (ovarian adenocarcinoma) cells; assay: MTS assay, SK-OV-3; type: cell-based; conditions: SK-OV-3, 48 and 72 hours of exposure, FIG. 10
# Excerpt: (§1) The human cell lines used for MTS assay screening included MG-63 (osteosarcoma), SK-OV-3 (ovarian adenocarcinoma), MDA-MB-231 (breast adenocarcinoma derived from a metastatic site), HCT 116 (colorectal carcinoma), HCT 116/200 (an FdUrd resistant subclone of HCT 116 cells), A2780ADR (a doxorubicin resistant subclone of the ovarian carcinoma A2780), and HUVEC (normal human umbilical vein endothelial cells). All cells were stored in liquid nitrogen until use. MG-63, SK-OV-3, MDA-MB-231, and HCT 116 cell lines were all obtained from ATCC. A2780ADR cells were obtained from Sigma-Aldrich. HCT 116/200 cells were obtained from Dr. Franklin G. Berger from the Center for Colon Cancer Research. HUVEC cells were obtained from Lonza. MG-63 cells were maintained in MEM medium (Corning) supplemented with 10% Fetal Bovine Essence (VWR) and 1% penicillin/streptomycin solution (Corning). […]
# (§2) Cells were first grown to approximately 80% confluency within […] tissue culture flasks (VWR). […] Cells were counted using a hemocytometer and their viability was confirmed using trypan blue (Gibco). […]
# (§3) After seeding, the cells were incubated for 24 hours at 37° C. and 5% CO2 to allow for cell attachment and renewal of the exponential growth phase. […] The cells were incubated for 2 hours, and the absorbance of each well at 490 nm was measured using a Spectramax 190 microplate reader.
# [2] = system: MG-63 (osteosarcoma) cells; assay: MTS assay, MG-63; type: cell-based; conditions: MG-63, 48 and 72 hours of exposure, FIG. 9
# Excerpt: as §1, §2, §3
# [3] = system: SKMEL5 melanoma cells; assay: Cell cycle analysis (PI staining, flow cytometry); type: cell-based
# Procedure: The effect of the deacetylnemorone on the cell cycle of SKMEL5 melanoma cells was determined using a PI staining assay. SKMEL5 cells were maintained in RPMI 1640 media supplemented with 10% FBS and 2 mM L-glutamine and incubated at 37° C. and 5% CO2. The cells were seeded in 6 well plates at a density of 300,000 cells per well. After 24 hours, the media was removed and replaced with either fresh media (control) or with media supplemented with 17.3 μM of the deacetylnemorone of FIG. 1. The cells were incubated with this treatment for 72 hours total. At 6, 12, 24, 48, and 72 hours, the cells from two wells each of the control of the treated group were trypsinized, collected in centrifuge tubes, and centrifuged at 2500 rpm for 5 minutes. The supernatant was removed, and the pellet was washed with PBS and centrifuged 2 times. The pellet was then suspended in 500 μL PBS and added 3 mL of 70% ethanol dropwise while vortexing. This mixture was then incubated at 4° C. for 24 hours. Next, the mixture was centrifuged, the supernatant was removed and the pellet was suspended in PBS and stored at 4° C. until all the samples were collected. […]
# [4] = system: melanoma line SK-MEL-5; assay: NCI-60 one-dose screen, SK-MEL-5; type: cell-based; conditions: 10 μM, 48 hours
# Procedure: (§4) One dose cytotoxicity screening was performed by the NCI-60 screening program of the National Institutes of Health (NIH), which is known in the art and available from the NIH. The NCI-60 panel is a collection of cancer cell lines, from various diverse tumors, which was developed in the 1980s by the National Cancer Institute to aid screening efforts for cytotoxic or cytostatic compounds.
# (§5) In these screens 59 cell lines were utilized to determine the cytotoxic effect of the deacetylnemorone. […]
# (§6) A control for each cell type was also simultaneously created, which was treated with 100 μL of culture media without deacetylnemorone. […] The bound stain was then dissolved in 10 mM trizma base and the absorbance was read using an automated plate reader at 515 nm.
# (§7) Suspension cells were treated in the same fashion with the exception that the cells were fixed once they had settled at the bottom of the wells using 50 μL of 80% TCA. The absorbance of each well was then converted to growth percent using equation 1 (below) where Ti is the average absorbance of the samples treated with a certain concentration of the compound of this invention, Tz represents the average absorbance of the samples fixed at the time the compound of interest was added to the experimental groups, and C is the average absorbance of the media treated control. […]
# [5] = system: A2780ADR (doxorubicin resistant subclone of ovarian carcinoma A2780) cells; assay: MTS assay, A2780ADR; type: cell-based; conditions: 48 and 72 hours of exposure, FIG. 14
# Excerpt: as §1, §2, §3
# [6] = system: 59 cell lines of the NCI-60 panel; assay: NCI-60 one-dose cytotoxicity screen, 59 cell lines; type: cell-based; conditions: 10 μM
# Procedure: as §4, §5, §6, §7
# [7] = system: HCT 116/200 (FdUrd resistant subclone of HCT 116) cells; assay: MTS assay, HCT 116/200; type: cell-based
# Excerpt: as §1, §2, §3
# [8] = system: MDA-MB-231 (breast adenocarcinoma) cells; assay: MTS assay, MDA-MB-231; type: cell-based
# Excerpt: as §1, §2, §3
# [9] = system: MDA-MB-231 breast cancer cells; assay: In vitro invasion assay (cell-free gap); type: cell-based, human
# Procedure: Cell migration of MDA-MB-231 breast cancer cells was assessed through making a cell-free gap with a Culture Insert 2 well 24 (Ibidi), consisting of two wells that were separated by a wall. A total of 70 μl of cell suspension comprising of 35×10^3 cells was added to each well. Cells were given 24 hours to attach and reach confluency. Culture inserts were then removed and cell debris was washed with PBS. Fresh culture media supplemented with different concentration of the compound of interest was added to the wells and the cells were incubated at 37° C. and 5% CO2 for 26 hours. Images were taken 0, 6, 20, and 26 hours after compound addition using a phase contrast Nikon Eclipse Ti-E inverted microscope. Quantification of invasion was performed by measuring the gap distance for three repetitions and using the following formula,
# [formula] where Wn is the width of gap after incubation, and W0 is the initial width right after forming the gap. Tube Formation Assay
# [10] = system: HUVEC endothelial cells; assay: Tube formation assay on growth factor reduced Matrigel; type: cell-based, human; conditions: 8 hours of incubation
# Procedure: Growth factor reduced BD Matrigel (Corning), stored long-term at −20° C., was thawed on ice overnight in a 4° C. refrigerator prior to use. The following day, 50 μL of the thawed Matrigel was added to each well of a pre-chilled 96-well plate and incubated at 37° C. and 5% CO2 for approximately 30 minutes to allow the matrix to form a gel. Next, 100 μL of a cell suspension containing 20,000 HUVEC cells in cell culture media with various concentrations of deacetylnemorone was added to each well. The control consisted of HUVEC cells suspended in endothelial growth media alone. After 8 hours of incubation at 37° C. and 5% CO2, the number of tubes formed between the endothelial cells were quantified using an inverted microscope (Invitrogen EVOS FL Auto at 4× magnification).
# [11] = system: HCT 116 (colorectal carcinoma) cells; assay: MTS assay, HCT 116; type: cell-based
# Excerpt: as §1, §2, §3
# [12] = system: melanoma cell lines; assay: NCI-60 one-dose screen, melanoma cell lines; type: cell-based; conditions: 10 μM, 48 hours; in 6 out of 9 melanoma cell lines
# Procedure: as §4, §5, §6, §7
substance,measurement,setting,value
deacetylnemorone,"cytotoxicity (percent viability, MTS)",[1],significant cytotoxic properties
same,"cytotoxicity (percent viability, MTS)",[2],significant cytotoxic properties
same,percent of cells in S phase,"[3]; SKMEL5, after 24 hours, 17.3 μM (method) / 15 μM (figure legend)",increase in the percent of cells in S phase
same,sub-G1 population,"[3]; SKMEL5, up to 72 hours",low sub-G1 population
same,percent growth,[4],negative percent growth
same,"cytotoxicity (percent viability, MTS)",[5],significant cytotoxic properties
same,number of cell lines whose growth was inhibited,"[6]; 48 hours, 59 cell lines screened",55 of the 59
same,average inhibition of percent growth across all 59 cell lines,[6]; after 48 hours,47%
same,"cytotoxicity (percent viability, MTS)","[7]; HCT 116/200, 48 and 72 hours of exposure, FIG. 13",significant cytotoxic properties
same,"cytotoxic effect in combination with FdUrd (percent viability, cell number)","[7]; HCT 116/200, 48 hour exposure, combination with FdUrd, FIG. 16 and 17","dose dependent, synergistic cytotoxic effect"
same,"cytotoxicity (percent viability, MTS)","[8]; MDA-MB-231, 48 and 72 hours of exposure, FIG. 11",significant cytotoxic properties
same,lowest concentration at which cell death was indicated (MTS),[8]; breast cancer,10 µg/mL
same,invasion of breast cancer cells,"[9]; 1 μg/mL, after 26 hours",significantly inhibited
same,invasion of breast cancer cells,"[9]; 10 μg/mL, after 26 hours",significantly inhibited
same,invasion of breast cancer cells,[9]; after 20 hours of incubation,significantly inhibited
same,tube formation between HUVEC cells,[10]; 0.1 μg/mL,inhibit tube formation
same,tube formation between HUVEC cells,[10]; 10 μg/mL,inhibit tube formation
same,"cytotoxicity (percent viability, MTS)","[11]; HCT-116, 48 and 72 hours of exposure, FIG. 12",significant cytotoxic properties
same,lowest concentration at which cell death was indicated (MTS),[11]; colon cancer,10 µg/mL
same,growth inhibition of melanoma cell lines,[12],more than 70%
